Experimental data: PubChem BioAssay AID2060912 (Molecular Pharmacology Branch, DTP, NCI, 2025)
Where “and” joins values, the source holds several entries; their conditions need not be identical. Identical values can stand only once.

Test system: HUVEC/MSC spheroids viability
Assay: Human HUVEC/MSC cell line growth inhibition [KRAS2];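 for viability, T/C: percent of DMSO vehicle control luminescence so 100% = untreated viability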
Conditions: for viability, T/C: stronger effect = lower value
Source text: Multicellular complex tumor spheroid response to RAS pathway inhibitors in combination with a targeted agents in patient-derived cell lines with oncogenic KRAS variants from multiple cancer types
A high-throughput screen of multi-cell type tumor spheroids was designed to identify active combinations of targeted small molecules and KRAS pathway inhibitors. Complex spheroids include a stromal component modeled by human endothelial cells (HUVEC) and fibroblasts modeled by human mesenchymal stem cells (MSCs). The concentration ranges selected for each drug and investigational agent were based upon clinically achievable concentrations if the clinical Cmax of the agent was known. * [This particular assayID is a followup dataset requested by reviewers of the manuscript. It is a test of the HUVEC and MSC without the tumor cells, and was conducted using different drug plates and a different plate layout.]
Compounds. The drugs and investigational agents: BI-3406 (NSC825286), BAY-293 (NSC824723), batoprotafib (TNO155; NSC825523), sotorasib (AMG 510; NSC818433), MRTX1257 (NSC819558), elimusertib (BAY 1895344; NSC800525), molibresib (GSK525762; NSC774829), temuterkib (LY3214996; NSC803410), venetoclax (NSC766270), alisertib (NSC759677), olaparib (NSC753686), talazoparib (NSC767125), erdafitinib (NSC781556), ipatasertib (NSC767898), cabozantinib (NSC761068), nintedanib (NSC756659), abemaciclib (NSC768073), docetaxel (NSC628503), trametinib (NSC758246), and sapanisertib (NSC764658) were obtained from the National Cancer Institute (NCI) Developmental Therapeutics Program Chemical Repository. The FDA-approved anticancer drug set is available from the Developmental Therapeutics Program. […] The stock solutions were prepared in dimethyl sulfoxide (DMSO, Sigma-Aldrich, St. Louis, MO, cat. D2650) at 800-fold the tested concentration and stored at -70 degrees C prior to their use. All drugs and investigational agents were tested over a range starting from a high concentration at or near the clinical Cmax and decreasing in half-log increments. If the clinical Cmax for an agent had not been determined, the highest concentration tested was 10 microM.
Cell Culture. All cells were maintained in an incubator at 37 degrees C and 5% CO2 with 95% humidity. The PDC lines were cultured according to standard operating procedures established by the NCI PDMR (https://pdmr.cancer.gov/sops/default.htm). Briefly, all PDCs were thawed and cultured in Matrigel-coated flasks prepared with a working solution of 1X Ham's F-12 nutrient mix, without supplementation (Invitrogen, Waltham, MA, cat. 11765054), 100 U/mL penicillin-streptomycin (Invitrogen, cat. 15140122), and 2.5% Matrigel (Corning Inc., Corning, NY, cat. 354248) for the first three passages. All PDCs were cultured in complete DMEM/F-12 media containing advanced DMEM/F-12 (Invitrogen, cat. 12634028), 4.9% defined fetal bovine serum, heat inactivated (HyClone Laboratories Inc., Logan, UT, cat. SH30070.03HI), 389 ng/mL hydrocortisone (Sigma-Aldrich, cat. H4001), 9.7 ng/mL human EGF recombinant protein (Invitrogen, cat. PHG0313), 23.4 microg/mL adenine (Sigma-Aldrich, cat. A2786), 97.3 U/mL penicillin-streptomycin (Invitrogen, cat. 15140122), 1.9 mM L-glutamine (Invitrogen, cat. 25030081), and 9.7 microM Y-27632 dihydrochloride (Tocris Bioscience, Bristol, United Kingdom, cat. 1254). The PDCs were cultured in complete DMEM/F12 media without 9.7 microM Y-27632 dihydrochloride for at least two passages prior to the screen. The established cell line HOP-62 was cultured in RPMI 1640 medium, HEPES (Invitrogen, cat. 22400105) with 10% defined fetal bovine serum (HyClone Laboratories Inc., cat. SH30070.03) and 2 mM L-glutamine (Invitrogen, cat. 25030081). The pooled donor HUVEC were cultured in endothelial cell growth medium 2 (PromoCell, Heidelberg, Germany, cat. C-22011) and the hMSC were cultured in mesenchymal stem cell growth medium 2 (PromoCell, cat. C-28009). […]

[1] = compound alone, run of 05/05/2024

| Structure (SMILES) | viability, T/C (compound 0.0316 µM) | viability, T/C (compound 10 µM) | IC50 (curve of compound) | viability, T/C (compound 0.316 µM) | viability, T/C (compound 1 µM) | viability, T/C (compound 0.1 µM) | further results |
| --- | --- | --- | --- | --- | --- | --- | --- |
| C=CC(=O)N1CCN(c2nc(=O)n(-c3c(C)ccnc3C(C)C)c3nc(-c4c(O)cccc4F)c(F)cc23)C(C)C1 (stereo not drawn) | 99.5% [middle of 9 runs] | 117% [middle of 9 runs] | – | – | – | – | IC50 [1]: > 10 µM |
| C=CC(=O)N1CCN(c2nc(OCC3CCCN3C)nc3c2CCN(c2cccc4cccc(C)c24)C3)CC1CC#N (stereo not drawn) | – | – | – | – | – | – | viability, T/C (compound 0.03 µM): 94.9% [middle of 9 runs]; viability, T/C (compound 0.949 µM): 73.6% [middle of 9 runs]; viability, T/C (compound 3 µM): 80.8% [middle of 9 runs]; IC50 [1]: > 3 µM |
| CC(=O)Nc1cccc(-n2c(=O)n(C3CC3)c(=O)c3c(Nc4ccc(I)cc4F)n(C)c(=O)c(C)c32)c1 | – | – | 14.7 nM [middle of 5 runs] | – | – | – | viability, T/C (compound 94.9 pM): 110% [middle of 5 runs]; viability, T/C (compound 0.000949 µM): 118% [middle of 5 runs]; viability, T/C (compound 0.00949 µM): 71.8% [middle of 5 runs]; viability, T/C (compound 0.03 µM): 17.6% [middle of 5 runs] |
| CC(=O)OC12COC1CC(O)C1(C)C(=O)C(O)C3=C(C)C(OC(=O)C(O)C(NC(=O)OC(C)(C)C)c4ccccc4)CC(O)(C(OC(=O)c4ccccc4)C21)C3(C)C (stereo not drawn) | – | – | < 0.00949 µM | – | – | – | viability, T/C (compound 0.00949 µM): 45.1% [middle of 5 runs]; viability, T/C (compound 0.03 µM): 44.2% [middle of 5 runs]; viability, T/C (compound 0.0949 µM): 47.2% [middle of 5 runs]; viability, T/C (compound 0.3 µM): 47.1% [middle of 4 runs]; viability, T/C (compound 0.949 µM): 47.9% [middle of 5 runs]; viability, T/C (compound 3 µM): 58.1% [middle of 5 runs] |
| CC(C)NCC(C(=O)N1CCN(c2ncnc3c2C(C)CC3O)CC1)c1ccc(Cl)cc1 (stereo not drawn) | – | 51.3% [middle of 5 runs] | > 10 µM and 2.61 µM and 9.3 µM | 83.5% [middle of 5 runs] | 71.7% [middle of 5 runs] | – | – |
| CC(C)n1nc(-c2ccc3oc(N)nc3c2)c2c(N)ncnc21 | 47.5% [middle of 5 runs] | – | – | – | – | 43.9% [middle of 5 runs] | viability, T/C (compound 0.001 µM): 68.3% [middle of 5 runs]; viability, T/C (compound 0.00316 µM): 51.2% [middle of 5 runs]; viability, T/C (compound 0.01 µM): 47.9% [middle of 5 runs] |
| CC1(C)CCC(CN2CCN(c3ccc(C(=O)NS(=O)(=O)c4ccc(NCC5CCOCC5)c([N+](=O)[O-])c4)c(Oc4cnc5[nH]ccc5c4)c3)CC2)=C(c2ccc(Cl)cc2)C1 | 90.6% [middle of 5 runs] | 4.4% [middle of 5 runs] | 4.56 µM [middle of 4 runs] | 83% [middle of 5 runs] | 90.2% [middle of 5 runs] | 95.1% [middle of 5 runs] | viability, T/C (compound 3.16 µM): 69% [middle of 5 runs] |
| CC1COCCN1c1cc(-c2ccnn2C)c2ccnc(-c3ccn[nH]3)c2n1 (stereo not drawn) | – | – | > 3 µM and 1.95 µM and 2.38 µM | – | – | – | viability, T/C (compound 0.03 µM): 80.5% [middle of 5 runs]; viability, T/C (compound 0.0949 µM): 87.6% [middle of 5 runs]; viability, T/C (compound 0.3 µM): 73.6% [middle of 5 runs]; viability, T/C (compound 0.949 µM): 56.7% [middle of 5 runs]; viability, T/C (compound 3 µM): 47.6% [middle of 5 runs] |
| CC1OCC2(CCN(c3cnc(Sc4ccnc(N)c4Cl)c(N)n3)CC2)C1N (stereo not drawn) | – | – | > 10 µM | – | – | – | IC50 [1]: > 10 µM |
| CCN1CCN(Cc2ccc(Nc3ncc(F)c(-c4cc(F)c5nc(C)n(C(C)C)c5c4)n3)nc2)CC1 | 87.7% [middle of 5 runs] | – | > 1 µM | 99.4% [middle of 5 runs] | – | 83.9% [middle of 5 runs] | viability, T/C (compound 0.01 µM): 86.6% [middle of 5 runs] |
| CCNC(=O)CC1N=C(c2ccc(Cl)cc2)c2cc(OC)ccc2-n2c(C)nnc21 (stereo not drawn) | 87.2% [middle of 5 runs] | – | > 10 µM | – | – | 86.6% [middle of 5 runs] | – |
| CN(C)C/C=C/C(=O)Nc1cc2c(Nc3ccc(F)c(Cl)c3)ncnc2cc1O[C@H]1CCOC1 | 85.3% [middle of 5 runs] | – | > 0.1 µM | – | – | – | viability, T/C (compound 0.000316 µM): 99.9% [middle of 5 runs]; viability, T/C (compound 0.001 µM): 91% [middle of 5 runs]; viability, T/C (compound 0.00316 µM): 90.5% [middle of 5 runs] |
| CNCc1ccccc1-c1csc(C(C)Nc2nc(C)nc3cc(OC)c(OC)cc23)c1 (stereo not drawn) | 88.4% [middle of 9 runs] | 0.41% [middle of 8 runs] | – | 84.6% [middle of 9 runs] | – | – | IC50 [1]: 5.29 µM [middle of 8 runs] |
| COC(=O)c1ccc2c(C(=Nc3ccc(N(C)C(=O)CN4CCN(C)CC4)cc3)c3ccccc3)c(O)[nH]c2c1 | – | 0.37% [middle of 5 runs] | 1.96 µM [middle of 5 runs] | – | 58.1% [middle of 5 runs] | – | viability, T/C (compound 3.16 µM): 39.6% [middle of 5 runs] |
| COc1cc(Nc2ncc3c(n2)-c2ccc(Cl)cc2C(c2c(F)cccc2OC)=NC3)ccc1C(=O)O | – | 61.2% [middle of 5 runs] | > 10 µM | 96% [middle of 5 runs] | 94% [middle of 5 runs] | 90.3% [middle of 5 runs] | viability, T/C (compound 3.16 µM): 104% [middle of 5 runs] |
| COc1cc(OC)cc(N(CCNC(C)C)c2ccc3ncc(-c4cnn(C)c4)nc3c2)c1 | 60.9% [middle of 5 runs] | 34.8% [middle of 5 runs] | 66.1 nM [middle of 5 runs] | 38.2% [middle of 5 runs] | 38.3% [middle of 5 runs] | 45.4% [middle of 5 runs] | viability, T/C (compound 3.16 µM): 41.8% [middle of 5 runs] |
| COc1cc2nc(C)nc(NC(C)c3cc(N)cc(C(F)(F)F)c3)c2cc1OC1CCOC1 (stereo not drawn) | 99.5% [middle of 9 runs] | 66.7% [middle of 9 runs] | – | 97.3% [middle of 9 runs] | – | – | IC50 [1]: > 10 µM |
| COc1cc2nccc(Oc3ccc(NC(=O)C4(C(=O)Nc5ccc(F)cc5)CC4)cc3)c2cc1OC | 76.8% [middle of 5 runs] | 36% [middle of 5 runs] | 6.87 µM [middle of 5 runs] | 70.8% [middle of 5 runs] | 71.4% [middle of 5 runs] | 79% [middle of 5 runs] | – |
| Cn1nccc1Nc1nccc(-c2cc3c(s2)C(C)(C)N(CCN2CCOCC2)C3=O)n1 | 91.1% [middle of 5 runs] | 5.24% [middle of 5 runs] | 2.65 µM [middle of 5 runs] | – | 99.3% [middle of 5 runs] | 105% [middle of 5 runs] | viability, T/C (compound 3.16 µM): 40.5% [middle of 5 runs] |
| Cn1ncnc1[C@H]1c2n[nH]c(=O)c3cc(F)cc(c23)N[C@@H]1c1ccc(F)cc1 | 88.1% [middle of 5 runs] | – | > 0.1 µM | – | – | 84.2% [middle of 5 runs] | viability, T/C (compound 0.001 µM): 87.9% [middle of 5 runs]; viability, T/C (compound 0.00316 µM): 83.8% [middle of 5 runs]; viability, T/C (compound 0.01 µM): 90.7% [middle of 5 runs] |
| O=C(c1cc(Cc2n[nH]c(=O)c3ccccc23)ccc1F)N1CCN(C(=O)C2CC2)CC1 | – | 95.3% [middle of 5 runs] | > 10 µM | 90.8% [middle of 5 runs] | 89.3% [middle of 5 runs] | – | – |
